Data published in ChEMBL document CHEMBL4507276 (2021).

What was measured:
[1] = biological target: Atypical kinase COQ8B, mitochondrial (Homo sapiens) (UniProt Q96D53); conditions: Compound concentration 1000.0 nM
[2] = biological target: Alpha-2B adrenergic receptor (Homo sapiens) (UniProt P18089); conditions: Compound concentration 10.0 uM
[3] = biological target: Type-1 angiotensin II receptor (Homo sapiens) (UniProt P30556); experiment: AT1/H Cerep selectivity data (BI); conditions: filed as antagonist, Compound concentration 20.0 uM
[4] = biological target: Beta-secretase 1 (Homo sapiens) (UniProt P56817); experiment: BACE-1 Cerep selectivity data (BI); conditions: Compound concentration 20.0 uM
[5] = biological target: Leukotriene B4 receptor 1 (Homo sapiens) (UniProt Q15722); experiment: BLT1/H Cerep selectivity data (BI); conditions: Compound concentration 20.0 uM
[6] = biological target: Prostaglandin G/H synthase 2 (Homo sapiens) (UniProt P35354); experiment: COX2_HU Cerep selectivity data (BI); conditions: Compound concentration 20.0 uM
[7] = biological target: Sodium-dependent dopamine transporter (Homo sapiens, UniProt Q01959); experiment: DATRANS/HUM Cerep selectivity data (BI); conditions: Compound concentration 20.0 uM
[8] = biological target: Prostaglandin F2-alpha receptor (Homo sapiens) (UniProt P43088); experiment: FPH_AGON Cerep selectivity data (BI); conditions: filed as agonist, Compound concentration 20.0 uM
[9] = biological target: Neuropeptide Y receptor type 1 (Homo sapiens) (UniProt P25929); experiment: Y1/HUM Cerep selectivity data (BI); conditions: filed as antagonist, Compound concentration 20.0 uM
[10] = biological target: D(1A) dopamine receptor (Homo sapiens) (UniProt P21728); experiment: D1/HU Eurofins-Panlabs selectivity data (BI); conditions: Compound concentration 10.0 uM
[11] = biological target: Glutamate receptor ionotropic, kainate 1 (Rattus norvegicus) (UniProt P22756); experiment: KAINATE/R Eurofins-Panlabs selectivity data (BI); conditions: Compound concentration 10.0 uM
[12] = biological target: T1, Muscarinic acetylcholine receptor M1 (Homo sapiens) (UniProt P11229); experiment: M1/HU Eurofins-Panlabs selectivity data (BI); conditions: Compound concentration 10.0 uM
T1 sequence (whole entry): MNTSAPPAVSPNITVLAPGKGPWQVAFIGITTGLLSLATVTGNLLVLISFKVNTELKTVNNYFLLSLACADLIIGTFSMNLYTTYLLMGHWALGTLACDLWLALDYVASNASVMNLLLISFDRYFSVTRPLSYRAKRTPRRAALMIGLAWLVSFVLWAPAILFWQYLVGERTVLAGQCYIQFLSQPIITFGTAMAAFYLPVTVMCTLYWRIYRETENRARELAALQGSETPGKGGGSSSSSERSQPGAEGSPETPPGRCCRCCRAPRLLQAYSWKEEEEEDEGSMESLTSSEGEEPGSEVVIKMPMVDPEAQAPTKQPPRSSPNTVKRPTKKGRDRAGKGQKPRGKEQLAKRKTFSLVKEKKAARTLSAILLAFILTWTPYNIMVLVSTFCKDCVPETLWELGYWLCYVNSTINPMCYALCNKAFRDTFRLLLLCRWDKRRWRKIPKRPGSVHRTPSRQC

[13] = biological target: Neuropeptide Y receptor type 2 (Homo sapiens) (UniProt P49146); experiment: Y2/HU Eurofins-Panlabs selectivity data (BI); conditions: Compound concentration 10.0 uM
[14] = biological target: Dual specificity protein kinase CLK2 (Homo sapiens) (UniProt P49760); experiment: CLK2 Invitrogen selectivity data (BI); conditions: Compound concentration 3.0 uM
[15] = biological target: Casein kinase I isoform epsilon (Homo sapiens) (UniProt P49674); experiment: CSNK1E Invitrogen selectivity data (BI); conditions: Compound concentration 3.0 uM
[16] = biological target: G protein-coupled receptor kinase 4 (Homo sapiens) (UniProt P32298); experiment: GRK4 Invitrogen selectivity data (BI); conditions: Compound concentration 3.0 uM
[17] = biological target: T2, Serine/threonine-protein kinase haspin (Homo sapiens) (UniProt Q8TF76); experiment: GSG2 Invitrogen selectivity data (BI); conditions: Compound concentration 3.0 uM
T2 sequence (whole entry): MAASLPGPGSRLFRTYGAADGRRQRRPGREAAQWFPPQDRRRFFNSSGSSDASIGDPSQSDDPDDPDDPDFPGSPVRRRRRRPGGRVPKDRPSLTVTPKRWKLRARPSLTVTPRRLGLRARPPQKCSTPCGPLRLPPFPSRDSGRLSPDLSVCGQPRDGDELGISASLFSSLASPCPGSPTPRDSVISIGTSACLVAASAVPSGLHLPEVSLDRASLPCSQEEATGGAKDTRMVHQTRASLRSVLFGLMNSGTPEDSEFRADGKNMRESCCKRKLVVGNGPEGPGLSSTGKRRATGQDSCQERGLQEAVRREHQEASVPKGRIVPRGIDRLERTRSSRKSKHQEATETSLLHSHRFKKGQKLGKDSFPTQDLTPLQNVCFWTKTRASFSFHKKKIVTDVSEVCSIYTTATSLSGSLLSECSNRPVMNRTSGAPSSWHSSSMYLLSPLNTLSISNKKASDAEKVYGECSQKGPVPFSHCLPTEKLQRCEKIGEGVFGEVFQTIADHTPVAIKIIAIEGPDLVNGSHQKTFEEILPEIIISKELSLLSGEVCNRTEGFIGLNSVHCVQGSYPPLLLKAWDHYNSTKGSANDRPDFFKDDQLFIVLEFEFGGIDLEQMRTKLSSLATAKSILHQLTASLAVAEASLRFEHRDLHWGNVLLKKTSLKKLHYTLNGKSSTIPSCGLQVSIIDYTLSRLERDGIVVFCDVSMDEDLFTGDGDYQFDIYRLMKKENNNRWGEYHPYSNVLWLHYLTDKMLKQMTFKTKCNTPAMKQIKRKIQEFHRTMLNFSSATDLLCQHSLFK

[18] = biological target: LIM domain kinase 2 (Homo sapiens) (UniProt P53671); experiment: LIMK2 Invitrogen selectivity data (BI); conditions: Compound concentration 3.0 uM
[19] = biological target: Tyrosine-protein kinase Lyn (Homo sapiens) (UniProt P07948); experiment: LYN B Invitrogen selectivity data (BI); conditions: Compound concentration 3.0 uM
Homo sapiens = species on record: Homo sapiens; experiment: MLCK Invitrogen selectivity data (BI); conditions: Compound concentration 3.0 uM
[20] = biological target: T3, Tyrosine-protein kinase TXK (Homo sapiens) (UniProt P42681); experiment: TXK Invitrogen selectivity data (BI); conditions: Compound concentration 3.0 uM
T3 sequence (whole entry): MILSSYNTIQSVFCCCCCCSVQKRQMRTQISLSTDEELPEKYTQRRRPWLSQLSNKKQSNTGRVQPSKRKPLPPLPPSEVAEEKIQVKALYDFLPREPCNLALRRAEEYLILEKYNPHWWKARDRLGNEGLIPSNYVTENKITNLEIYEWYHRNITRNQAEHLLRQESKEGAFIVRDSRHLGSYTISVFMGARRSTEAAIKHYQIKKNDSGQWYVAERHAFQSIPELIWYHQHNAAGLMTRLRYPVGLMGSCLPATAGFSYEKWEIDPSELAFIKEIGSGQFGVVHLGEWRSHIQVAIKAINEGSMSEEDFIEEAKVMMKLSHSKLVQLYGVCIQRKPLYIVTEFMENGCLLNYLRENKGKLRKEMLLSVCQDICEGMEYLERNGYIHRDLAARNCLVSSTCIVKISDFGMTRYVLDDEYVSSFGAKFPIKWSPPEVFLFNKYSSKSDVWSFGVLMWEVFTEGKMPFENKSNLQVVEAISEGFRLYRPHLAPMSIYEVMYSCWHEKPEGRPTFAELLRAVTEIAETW

[21] = biological target: MAP/microtubule affinity-regulating kinase 3 (Homo sapiens) (UniProt P27448); experiment: MARK3 Invitrogen selectivity data (BI); conditions: Compound concentration 3.0 uM
Sequence of MAP/microtubule affinity-regulating kinase 3 (Homo sapiens) (P27448 whole entry, looked up): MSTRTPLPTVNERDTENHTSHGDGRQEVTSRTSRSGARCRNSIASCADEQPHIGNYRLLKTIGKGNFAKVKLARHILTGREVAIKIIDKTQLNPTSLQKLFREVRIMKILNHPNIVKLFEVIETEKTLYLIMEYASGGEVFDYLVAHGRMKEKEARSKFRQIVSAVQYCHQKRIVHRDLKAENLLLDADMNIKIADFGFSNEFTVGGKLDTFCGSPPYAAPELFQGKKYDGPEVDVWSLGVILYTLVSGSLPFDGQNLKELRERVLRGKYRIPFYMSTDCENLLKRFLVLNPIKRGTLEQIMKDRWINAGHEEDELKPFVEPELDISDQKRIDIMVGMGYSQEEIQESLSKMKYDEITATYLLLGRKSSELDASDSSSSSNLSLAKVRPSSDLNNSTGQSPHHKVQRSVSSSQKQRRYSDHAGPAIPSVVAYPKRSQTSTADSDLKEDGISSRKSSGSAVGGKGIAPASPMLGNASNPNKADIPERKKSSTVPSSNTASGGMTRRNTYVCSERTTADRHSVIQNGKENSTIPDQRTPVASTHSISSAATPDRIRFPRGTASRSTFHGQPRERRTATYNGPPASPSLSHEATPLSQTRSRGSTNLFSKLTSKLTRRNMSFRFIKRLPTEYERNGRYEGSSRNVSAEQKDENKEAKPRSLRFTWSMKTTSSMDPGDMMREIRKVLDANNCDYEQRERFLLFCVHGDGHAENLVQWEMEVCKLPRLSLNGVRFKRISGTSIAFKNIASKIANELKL

Sequence of Prostaglandin G/H synthase 2 (Homo sapiens) (P35354 whole entry): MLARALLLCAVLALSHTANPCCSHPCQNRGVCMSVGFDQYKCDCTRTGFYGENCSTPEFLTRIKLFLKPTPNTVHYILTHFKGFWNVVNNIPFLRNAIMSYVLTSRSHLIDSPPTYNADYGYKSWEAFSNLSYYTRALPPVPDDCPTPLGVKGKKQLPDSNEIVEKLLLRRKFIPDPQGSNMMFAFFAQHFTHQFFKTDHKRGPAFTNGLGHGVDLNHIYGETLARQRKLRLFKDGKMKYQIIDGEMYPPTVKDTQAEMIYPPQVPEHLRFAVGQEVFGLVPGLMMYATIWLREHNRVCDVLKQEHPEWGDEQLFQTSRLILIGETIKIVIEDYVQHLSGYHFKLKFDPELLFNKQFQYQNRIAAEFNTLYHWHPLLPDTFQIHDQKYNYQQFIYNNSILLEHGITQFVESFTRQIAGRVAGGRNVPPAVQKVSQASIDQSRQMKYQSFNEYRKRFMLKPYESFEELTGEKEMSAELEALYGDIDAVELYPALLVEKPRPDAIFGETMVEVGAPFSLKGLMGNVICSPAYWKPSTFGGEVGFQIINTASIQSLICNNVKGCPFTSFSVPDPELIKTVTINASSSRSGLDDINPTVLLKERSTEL
Sequence of LIM domain kinase 2 (Homo sapiens) (P53671 whole entry, looked up, the tested form may be a part): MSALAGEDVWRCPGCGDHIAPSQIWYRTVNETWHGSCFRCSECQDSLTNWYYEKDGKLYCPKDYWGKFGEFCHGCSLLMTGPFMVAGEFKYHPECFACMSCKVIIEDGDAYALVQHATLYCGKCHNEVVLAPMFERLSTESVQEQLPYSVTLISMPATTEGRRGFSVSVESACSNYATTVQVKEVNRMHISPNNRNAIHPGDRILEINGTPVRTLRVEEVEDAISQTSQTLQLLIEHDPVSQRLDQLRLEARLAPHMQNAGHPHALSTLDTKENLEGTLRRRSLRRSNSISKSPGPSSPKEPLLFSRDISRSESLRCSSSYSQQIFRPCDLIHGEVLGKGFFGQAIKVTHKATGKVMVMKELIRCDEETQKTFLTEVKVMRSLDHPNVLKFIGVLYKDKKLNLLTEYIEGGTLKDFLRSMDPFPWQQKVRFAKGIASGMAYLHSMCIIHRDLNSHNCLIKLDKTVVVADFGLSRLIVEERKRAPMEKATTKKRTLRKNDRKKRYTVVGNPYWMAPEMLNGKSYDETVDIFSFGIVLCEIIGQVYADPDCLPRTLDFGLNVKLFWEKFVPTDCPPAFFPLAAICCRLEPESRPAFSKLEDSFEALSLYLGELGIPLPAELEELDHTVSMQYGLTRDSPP
Sequence of Dual specificity protein kinase CLK2 (Homo sapiens) (P49760 whole entry, looked up, canonical isoform): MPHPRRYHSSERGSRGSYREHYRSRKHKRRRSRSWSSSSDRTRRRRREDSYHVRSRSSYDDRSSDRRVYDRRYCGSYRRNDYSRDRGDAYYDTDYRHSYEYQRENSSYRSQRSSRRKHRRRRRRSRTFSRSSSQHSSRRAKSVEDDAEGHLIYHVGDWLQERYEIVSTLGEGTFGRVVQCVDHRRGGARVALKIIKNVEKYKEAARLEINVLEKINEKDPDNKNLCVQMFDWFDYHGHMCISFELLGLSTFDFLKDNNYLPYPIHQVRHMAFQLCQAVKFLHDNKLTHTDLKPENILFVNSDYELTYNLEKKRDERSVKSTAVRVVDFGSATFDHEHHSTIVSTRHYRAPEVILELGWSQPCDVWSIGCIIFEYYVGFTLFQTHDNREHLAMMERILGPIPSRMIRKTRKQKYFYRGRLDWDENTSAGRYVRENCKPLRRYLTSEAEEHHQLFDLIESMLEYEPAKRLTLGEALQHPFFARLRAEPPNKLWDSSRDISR
Sequence of Glutamate receptor ionotropic, kainate 1 (Rattus norvegicus) (P22756 whole entry): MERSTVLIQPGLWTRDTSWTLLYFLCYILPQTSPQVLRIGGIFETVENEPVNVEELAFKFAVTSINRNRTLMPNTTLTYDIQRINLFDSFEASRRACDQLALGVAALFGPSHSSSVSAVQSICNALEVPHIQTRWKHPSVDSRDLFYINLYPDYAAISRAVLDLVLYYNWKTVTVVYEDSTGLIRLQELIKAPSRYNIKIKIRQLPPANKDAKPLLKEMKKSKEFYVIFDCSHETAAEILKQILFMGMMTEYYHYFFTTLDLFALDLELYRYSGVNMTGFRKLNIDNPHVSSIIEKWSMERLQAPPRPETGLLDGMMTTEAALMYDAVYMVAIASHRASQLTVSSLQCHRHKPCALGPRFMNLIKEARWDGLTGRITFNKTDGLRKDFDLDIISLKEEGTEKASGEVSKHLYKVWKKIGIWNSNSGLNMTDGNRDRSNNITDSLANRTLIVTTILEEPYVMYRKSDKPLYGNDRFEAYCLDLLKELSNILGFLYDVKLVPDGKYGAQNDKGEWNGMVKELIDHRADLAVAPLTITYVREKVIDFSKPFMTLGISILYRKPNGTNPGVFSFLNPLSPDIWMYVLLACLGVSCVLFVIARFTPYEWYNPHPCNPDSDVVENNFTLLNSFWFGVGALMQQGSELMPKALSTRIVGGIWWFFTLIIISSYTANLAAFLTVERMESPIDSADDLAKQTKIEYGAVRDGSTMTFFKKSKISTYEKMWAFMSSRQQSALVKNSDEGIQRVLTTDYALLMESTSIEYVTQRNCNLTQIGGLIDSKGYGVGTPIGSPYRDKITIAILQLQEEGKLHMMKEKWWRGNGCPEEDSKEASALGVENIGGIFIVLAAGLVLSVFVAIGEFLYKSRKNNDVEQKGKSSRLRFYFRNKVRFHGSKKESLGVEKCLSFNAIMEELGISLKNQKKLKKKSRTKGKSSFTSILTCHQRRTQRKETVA
Sequence of Prostaglandin F2-alpha receptor (Homo sapiens) (P43088 whole entry): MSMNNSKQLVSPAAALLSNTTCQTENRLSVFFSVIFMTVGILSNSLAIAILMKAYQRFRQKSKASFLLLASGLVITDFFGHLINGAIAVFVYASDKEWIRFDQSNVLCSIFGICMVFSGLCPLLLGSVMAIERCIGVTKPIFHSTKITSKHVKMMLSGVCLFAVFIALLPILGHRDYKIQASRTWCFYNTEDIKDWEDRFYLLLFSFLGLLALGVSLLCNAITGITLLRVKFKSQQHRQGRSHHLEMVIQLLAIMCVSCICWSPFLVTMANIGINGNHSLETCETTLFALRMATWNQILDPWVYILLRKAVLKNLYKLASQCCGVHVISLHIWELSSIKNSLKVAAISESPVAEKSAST
Sequence of Leukotriene B4 receptor 1 (Homo sapiens) (Q15722 whole entry): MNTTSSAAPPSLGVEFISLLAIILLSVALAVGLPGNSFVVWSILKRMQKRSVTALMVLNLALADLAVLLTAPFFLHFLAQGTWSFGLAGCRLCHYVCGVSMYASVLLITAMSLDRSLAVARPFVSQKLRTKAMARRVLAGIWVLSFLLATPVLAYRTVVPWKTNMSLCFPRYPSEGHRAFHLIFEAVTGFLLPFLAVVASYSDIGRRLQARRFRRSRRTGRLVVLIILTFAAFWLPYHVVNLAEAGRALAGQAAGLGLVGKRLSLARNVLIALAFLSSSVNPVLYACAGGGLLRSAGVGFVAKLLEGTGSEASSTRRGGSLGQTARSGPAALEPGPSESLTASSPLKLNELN
Sequence of Neuropeptide Y receptor type 1 (Homo sapiens) (P25929 whole entry): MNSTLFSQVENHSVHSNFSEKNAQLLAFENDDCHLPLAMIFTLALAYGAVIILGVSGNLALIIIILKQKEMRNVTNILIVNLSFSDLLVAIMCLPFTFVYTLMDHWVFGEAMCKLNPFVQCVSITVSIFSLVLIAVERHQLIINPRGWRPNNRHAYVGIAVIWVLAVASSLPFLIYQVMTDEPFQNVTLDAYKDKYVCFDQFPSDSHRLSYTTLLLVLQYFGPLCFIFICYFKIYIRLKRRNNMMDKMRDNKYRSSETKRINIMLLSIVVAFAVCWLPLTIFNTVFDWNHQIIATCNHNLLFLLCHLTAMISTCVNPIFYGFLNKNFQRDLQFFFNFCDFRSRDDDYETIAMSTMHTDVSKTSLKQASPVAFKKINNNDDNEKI
Sequence of Neuropeptide Y receptor type 2 (Homo sapiens) (P49146 whole entry): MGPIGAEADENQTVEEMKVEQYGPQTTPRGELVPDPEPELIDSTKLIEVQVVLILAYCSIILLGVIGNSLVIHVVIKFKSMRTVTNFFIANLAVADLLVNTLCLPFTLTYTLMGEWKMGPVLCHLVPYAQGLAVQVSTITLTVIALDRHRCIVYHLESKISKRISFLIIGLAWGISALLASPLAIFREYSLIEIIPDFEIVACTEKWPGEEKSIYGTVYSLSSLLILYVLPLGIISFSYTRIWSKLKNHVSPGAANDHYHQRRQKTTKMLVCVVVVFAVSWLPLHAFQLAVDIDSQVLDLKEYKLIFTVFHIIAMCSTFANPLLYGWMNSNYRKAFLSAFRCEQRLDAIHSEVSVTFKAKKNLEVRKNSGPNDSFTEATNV

CN(C)C(=O)Cn1cc(-c2nc(C3(c4ccc(-c5cnc(N)nc5)cc4)CC3)no2)cn1 [BI 0153]
inactive: residual activity [1] 100% | inhibition [2] -3.57%

CN(C)C(=O)Cn1cc(-c2nc([C@@](C)(c3ccc(-c4cnc(N)nc4)cc3)C3CC3)no2)cn1 [BI 665915]
inactive: residual activity [3] 108% | residual activity [4] 102% | residual activity [5] 100% | residual activity [6] 64% | residual activity [7] 87% | residual activity [8] 84% | residual activity [9] 104% | residual activity [10] 108% | residual activity [11] 90% | residual activity [12] 90% | residual activity [13] 97% | residual activity [14] 95.5% | residual activity [15] 95% | residual activity [16] 102% | residual activity [17] 100% | residual activity [18] 89% | residual activity [19] 89% | residual activity (Homo sapiens) 98% | residual activity [20] 95% | residual activity [21] 98%
